pIC50: −log10 of the molar value.

The target of the experiment is T1, Q46 protein aggregates (Homo sapiens, UniProt P42858).
T1 construct: fused on or other part: GST at the N-terminus, cut off with thrombin before the test to start aggregation; The wells held aggregated Q46 without GST
In words: Q46 radioligand binding assay (RBA). The note with it: 10 nM ligand [3H3]MK-3328. The method, then: Q46 Radioligand Binding Assay
For radioligand binding assays (RBA) GST-Q46 protein was generated based on a previous publication (Scherzinger et al. Cell, Vol. 90, 549-558, Aug. 8, 1997). For experiments 33 μM GST-Q46 was incubated with 150 μg/mL thrombin in assay buffer (150 mM NaCl, 50 mM Tris pH 8.0) and 2 mM CaCl2 for 16 hours at 37° C. Aggregated Q46 was pelleted by centrifugation for 5 minutes at 13,000 rpm in a bench top centrifuge and re-dissolved in the same volume of assay buffer. Test compounds were prepared by titration in DMSO at 11 concentrations from 33 μM to 1 nM. For the RBA, Q46 protein aggregates and test compounds were pre-incubated in assay buffer for 20 minutes at room temperature, in 140 μL/well in a 96-well plate (pp, round bottom). Then, ligand was added in 10 μL/well and incubated for 60 minutes at 37° C. Final assay concentrations were 1 μM to 30 pM test compound, 5 μM Q46 protein (equivalent monomer concentration) and 10 nM ligand [^3H3]MK-3328 (Harrision et al., ACS Med. Chem. Lett., 2 (2011), pp 498-502). Samples were transferred onto GF/B filter plates and washed 2× with 200 μL PBS using a Filtermate Harvester. After drying filter plates for 1 hour at 37° C., the back of the plates were sealed with foil and 30 μL/well scintillation fluid (Packard MicroScint 40) added, incubated for 15 minutes in the dark and counted in a TopCount reader. For analysis, replicate data from independent assay plates were normalized towards 0% and 100% inhibition using control wells of vehicle (0% inhibition) and 3 μM unlabelled MK-3328 (100% inhibition). IC50 values were determined with a sigmoidal inhibition model with four variables (top, bottom, slope, IC50) in a global fit using the normalized replicate data.

T1 sequence (P42858 with tags, fused parts or gaps with the stated changes, form open): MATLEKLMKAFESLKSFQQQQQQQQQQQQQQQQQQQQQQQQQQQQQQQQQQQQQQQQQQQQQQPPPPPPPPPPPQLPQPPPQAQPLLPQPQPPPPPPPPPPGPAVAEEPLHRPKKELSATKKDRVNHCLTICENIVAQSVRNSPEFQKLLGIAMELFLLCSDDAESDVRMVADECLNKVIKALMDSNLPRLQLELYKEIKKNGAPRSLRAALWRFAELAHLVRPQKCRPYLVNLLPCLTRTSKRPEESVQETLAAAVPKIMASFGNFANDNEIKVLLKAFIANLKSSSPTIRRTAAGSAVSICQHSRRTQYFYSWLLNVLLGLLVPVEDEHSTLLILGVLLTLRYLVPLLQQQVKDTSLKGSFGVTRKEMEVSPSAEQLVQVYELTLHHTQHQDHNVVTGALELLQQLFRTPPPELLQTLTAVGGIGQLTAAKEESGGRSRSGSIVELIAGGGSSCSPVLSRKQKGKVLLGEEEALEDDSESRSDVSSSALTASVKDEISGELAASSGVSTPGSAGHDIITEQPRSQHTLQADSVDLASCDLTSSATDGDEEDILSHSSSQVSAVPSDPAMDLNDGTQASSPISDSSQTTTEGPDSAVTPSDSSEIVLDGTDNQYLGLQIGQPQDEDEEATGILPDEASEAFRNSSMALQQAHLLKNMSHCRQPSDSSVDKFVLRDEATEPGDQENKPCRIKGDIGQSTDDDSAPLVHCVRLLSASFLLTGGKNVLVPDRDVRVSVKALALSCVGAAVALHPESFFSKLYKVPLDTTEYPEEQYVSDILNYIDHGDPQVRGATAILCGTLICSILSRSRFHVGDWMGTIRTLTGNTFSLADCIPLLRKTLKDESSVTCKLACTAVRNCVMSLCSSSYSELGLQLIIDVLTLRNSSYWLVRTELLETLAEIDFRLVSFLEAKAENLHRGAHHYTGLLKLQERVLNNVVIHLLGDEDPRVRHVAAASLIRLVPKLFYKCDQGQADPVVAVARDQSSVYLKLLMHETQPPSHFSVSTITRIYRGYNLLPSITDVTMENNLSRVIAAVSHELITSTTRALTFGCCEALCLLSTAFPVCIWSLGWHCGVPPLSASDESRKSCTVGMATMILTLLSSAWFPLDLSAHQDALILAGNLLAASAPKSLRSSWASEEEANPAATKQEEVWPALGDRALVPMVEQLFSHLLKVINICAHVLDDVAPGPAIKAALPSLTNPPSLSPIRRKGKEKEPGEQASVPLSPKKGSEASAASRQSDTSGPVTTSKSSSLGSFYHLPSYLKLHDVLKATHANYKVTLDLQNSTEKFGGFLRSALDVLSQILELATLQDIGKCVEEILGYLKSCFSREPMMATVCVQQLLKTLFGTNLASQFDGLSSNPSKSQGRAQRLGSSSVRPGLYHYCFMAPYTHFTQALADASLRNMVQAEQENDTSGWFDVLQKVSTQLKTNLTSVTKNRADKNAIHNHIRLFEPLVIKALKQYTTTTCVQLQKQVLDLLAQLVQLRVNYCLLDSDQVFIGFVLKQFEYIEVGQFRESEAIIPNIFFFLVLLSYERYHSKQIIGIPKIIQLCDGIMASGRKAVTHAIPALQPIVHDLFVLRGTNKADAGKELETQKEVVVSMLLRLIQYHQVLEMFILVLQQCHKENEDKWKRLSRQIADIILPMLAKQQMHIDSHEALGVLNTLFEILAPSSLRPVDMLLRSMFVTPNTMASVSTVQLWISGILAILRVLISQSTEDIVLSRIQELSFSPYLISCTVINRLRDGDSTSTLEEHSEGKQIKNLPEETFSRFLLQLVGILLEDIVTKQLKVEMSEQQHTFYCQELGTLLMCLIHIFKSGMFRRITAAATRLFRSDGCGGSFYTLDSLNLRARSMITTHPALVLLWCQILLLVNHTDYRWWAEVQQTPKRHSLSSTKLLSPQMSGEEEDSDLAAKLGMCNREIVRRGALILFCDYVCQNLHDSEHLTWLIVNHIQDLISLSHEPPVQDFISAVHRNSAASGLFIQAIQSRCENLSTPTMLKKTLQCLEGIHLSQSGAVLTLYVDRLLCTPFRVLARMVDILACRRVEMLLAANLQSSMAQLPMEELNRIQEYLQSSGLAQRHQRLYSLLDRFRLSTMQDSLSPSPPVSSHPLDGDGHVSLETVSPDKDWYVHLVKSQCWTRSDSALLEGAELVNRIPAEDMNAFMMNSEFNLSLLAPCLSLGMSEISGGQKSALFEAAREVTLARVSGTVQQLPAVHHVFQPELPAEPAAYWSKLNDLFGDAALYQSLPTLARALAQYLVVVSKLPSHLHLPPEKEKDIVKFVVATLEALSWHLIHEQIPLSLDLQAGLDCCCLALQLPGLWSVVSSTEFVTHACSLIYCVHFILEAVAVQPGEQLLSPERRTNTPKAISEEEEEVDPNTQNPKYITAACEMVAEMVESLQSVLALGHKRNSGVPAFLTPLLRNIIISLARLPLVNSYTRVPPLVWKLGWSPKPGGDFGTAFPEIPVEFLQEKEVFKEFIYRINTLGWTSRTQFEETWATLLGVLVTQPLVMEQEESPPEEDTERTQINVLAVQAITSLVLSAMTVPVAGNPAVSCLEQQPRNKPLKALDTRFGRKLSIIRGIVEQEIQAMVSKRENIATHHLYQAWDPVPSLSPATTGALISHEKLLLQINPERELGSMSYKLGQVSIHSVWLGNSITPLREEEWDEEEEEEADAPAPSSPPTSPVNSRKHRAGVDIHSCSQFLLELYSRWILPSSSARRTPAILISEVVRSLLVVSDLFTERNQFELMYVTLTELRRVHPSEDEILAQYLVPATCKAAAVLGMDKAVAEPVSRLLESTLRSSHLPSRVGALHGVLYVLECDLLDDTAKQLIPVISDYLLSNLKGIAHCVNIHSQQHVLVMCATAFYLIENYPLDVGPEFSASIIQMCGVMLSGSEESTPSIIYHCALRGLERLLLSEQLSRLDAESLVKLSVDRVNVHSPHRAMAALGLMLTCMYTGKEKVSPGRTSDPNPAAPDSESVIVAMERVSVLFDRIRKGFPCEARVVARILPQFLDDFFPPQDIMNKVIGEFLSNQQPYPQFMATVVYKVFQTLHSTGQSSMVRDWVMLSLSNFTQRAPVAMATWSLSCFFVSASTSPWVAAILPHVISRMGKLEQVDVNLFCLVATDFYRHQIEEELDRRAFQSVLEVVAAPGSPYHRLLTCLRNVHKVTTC

In general, pIC50 refers to −log10 of the IC50, conventionally taken in molar units. As for `COc1ccc(COc2ccc3oc(N4CCn5cncc5C4)nc3c2)nc1` [2-{5H,6H,7H,8H-imidazo[1,5-a]pyrazin-7-yl}-5-[(5-methoxypyridin-2-yl)methoxy]-1,3-benzoxazole], the negative-log IC50 (pIC50) is > 7.00.
For `COc1ccc(COc2cnc3oc(-c4cnccn4)nc3c2)nc1` [2-{6-[(5-methoxypyridin-2-yl)methoxy]-[1,3]oxazolo[5,4-b]pyridin-2-yl]pyrazine], the pIC50 is > 7.00.
For the compound `O=C(Nc1ccc2oc(-c3cccnc3)nc2c1)c1cccc(OCc2ccccc2)c1` [3-(benzyloxy)-N-[2-(pyridin-3-yl)-1,3-benzoxazol-5-yl]benzamide], the pIC50 is > 7.00.
In the case of `N#Cc1ccncc1-c1cc2cc(OCc3cccnc3)ccc2o1` [3-[5-(pyridin-3-ylmethoxy)-1-benzofuran-2-yl]pyridine-4-carbonitrile], the pIC50 was > 7.00.
As for `N#Cc1cccc(C(=O)Nc2ccc3oc(-c4cccnc4)nc3c2)c1` [3-cyano-N-[2-(pyridin-3-yl)-1,3-benzoxazol-5-yl]benzamide], the pIC50 is > 7.00.
`COc1cncc(COc2cnc3oc(-c4cccnc4)nc3c2)c1` [3-methoxy-5-({[2-(pyridin-3-yl)-[1,3]oxazolo[5,4-b]pyridin-6-yl]oxy}methyl)pyridine]: the pIC50 is > 7.00.
For `COc1ccc(COc2cnc3oc(-c4cccnc4)nc3c2)nn1` [3-methoxy-6-({[2-(pyridin-3-yl)-[1,3]oxazolo[5,4-b]pyridin-6-yl]oxy}methyl)pyridazine], the pIC50 is > 7.00.
On to `COc1cnc2c(c1)CN(c1ccc3oc(-c4cccnc4)nc3c1)C2=O` [3-methoxy-6-[2-(pyridin-3-yl)-1,3-benzoxazol-5-yl]-5H,6H,7H-pyrrolo[3,4-b]pyridin-7-one], for which the pIC50 is > 7.00.
As for `COc1ccc(-c2nc3cc(NC(=O)c4cccc(OC)c4)ccc3o2)cc1` [3-methoxy-N-[2-(4-methoxyphenyl)-1,3-benzoxazol-5-yl]benzamide], the pIC50 is > 7.00.
On to `COc1cc(C(=O)Nc2ccc3oc(-c4cccnc4)nc3c2)on1` [3-methoxy-N-[2-(pyridin-3-yl)-1,3-benzoxazol-5-yl]-1,2-oxazole-5-carboxamide], for which the pIC50 was > 7.00.
Regarding `COc1cccnc1C(=O)Nc1ccc2oc(-c3cccnc3)nc2c1` [3-methoxy-N-[2-(pyridin-3-yl)-1,3-benzoxazol-5-yl]pyridine-2-carboxamide], the pIC50 was 6.30 to 7.00.
As to `O=C(Nc1ccc2oc(-c3cccnc3)nc2c1)c1cccc(Oc2ccccc2)c1` [3-phenoxy-N-[2-(pyridin-3-yl)-1,3-benzoxazol-5-yl]benzamide], the pIC50 was > 7.00.
Regarding `Cn1cc(COc2ccc3oc(-c4cnccc4C#N)cc3c2)cn1` [3-{5-[(1-methyl-1H-pyrazol-4-yl)methoxy]-1-benzofuran-2-yl}pyridine-4-carbonitrile], the pIC50 is > 7.00.
Consider `COc1ccc(COc2ccc3oc(-c4cccc(C#N)c4)nc3c2)nc1` [3-{5-[(5-methoxypyridin-2-yl)methoxy]-1,3-benzoxazol-2-yl]benzonitrile], for which the pIC50 is > 7.00.
Regarding `COc1ccc(COc2ccc3oc(-c4ccc[n+]([O-])c4)nc3c2)nc1` [3-{5-[(5-methoxypyridin-2-yl)methoxy]-1,3-benzoxazol-2-yl}pyridin-1-ium-1-olate], the pIC50 was > 7.00.
The compound `COc1ccc(C(C)Oc2cnc3oc(-c4cccnc4)nc3c2)nc1` (stereo not drawn) [3-{6-[1-(5-methoxypyridin-2-yl)ethoxy]-[1,3]oxazolo[5,4-b]pyridin-2-yl}pyridine] gave a pIC50 of 6.30 to 7.00.
For `COc1ccc(C#Cc2cnc3oc(-c4cccnc4)nc3c2)cc1` [3-{6-[2-(4-methoxyphenyl)ethynyl]-[1,3]oxazolo[5,4-b]pyridin-2-yl}pyridine], the pIC50 is > 7.00.
As to `C(#Cc1cnc2oc(-c3cccnc3)nc2c1)c1cccnc1` [3-{6-[2-(pyridin-3-yl)ethynyl]-[1,3]oxazolo[5,4-b]pyridin-2-yl}pyridine], the negative-log IC50 (pIC50) is > 7.00.
With `Brc1ccc(COc2cnc3oc(-c4cccnc4)nc3c2)nc1` [3-{6-[(5-bromopyridin-2-yl)methoxy]-[1,3]oxazolo[5,4-b]pyridin-2-yl}pyridine] the figure was > 7.00.
In turn, `COc1ccc(COc2cnc3oc(-c4ccc[n+]([O-])c4)nc3c2)[n+]([O-])c1` [3-{6-[(5-methoxy-1-oxidopyridin-1-ium-2-yl)methoxy]-[1,3]oxazolo[5,4-b]pyridin-2-yl}pyridin-1-ium-1-olate] had a pIC50 of 6.30 to 7.00.
Consider `COc1ccc(COc2cnc3oc(-c4cccnc4)nc3c2)nc1` [3-{6-[(5-methoxypyridin-2-yl)methoxy]-[1,3]oxazolo[5,4-b]pyridin-2-yl}pyridine], for which the pIC50 was > 7.00.
As to `COc1ccc(COc2cnc3oc(-c4cccnc4)nc3c2)cn1` [3-{6-[(6-methoxypyridin-3-yl)methoxy]-[1,3]oxazolo[5,4-b]pyridin-2-yl}pyridine], the negative-log IC50 (pIC50) was > 7.00.
Consider `COc1ccc(/C=C\c2cnc3oc(-c4cccnc4)nc3c2)cc1` [3-{6-[(Z)-2-(4-methoxyphenyl)ethenyl]-[1,3]oxazolo[5,4-b]pyridin-2-yl}pyridine], for which the pIC50 was > 7.00.
Regarding `BrC1=C(c2cc3cc(OCc4cccnc4)ccc3o2)N2CCN=C2S1` [3-{[(2-{2-bromo-5H,6H-imidazo[2,1-b][1,3]thiazol-3-yl}-1-benzofuran-5-yl)oxy]methyl}pyridine], the pIC50 was > 7.00.
As for `C1=C(c2cc3cc(OCc4cccnc4)ccc3o2)N2CCN=C2S1` [3-{[(2-{5H,6H-imidazo[2,1-b][1,3]thiazol-3-yl}-1-benzofuran-5-yl)oxy]methyl}pyridine], the negative-log IC50 (pIC50) is > 7.00.
As for `N#Cc1cnccc1-c1cc2cc(OCC3=CSC4=NCCN34)ccc2o1` [4-(5-{5H,6H-imidazo[2,1-b][1,3]thiazol-3-ylmethoxy}-1-benzofuran-2-yl)pyridine-3-carbonitrile], the negative logarithm of the IC50 (pIC50) was > 7.00.
Consider `N#Cc1cnccc1-c1cc2cc(OCc3cnn(CCO)c3)ccc2o1` [4-(5-{[1-(2-hydroxyethyl)-1H-pyrazol-4-yl]methoxy}-1-benzofuran-2-yl)pyridine-3-carbonitrile], for which the pIC50 was > 7.00.
Regarding `COCCn1cc(COc2ccc3oc(-c4ccncc4C#N)cc3c2)cn1` [4-(5-{[1-(2-methoxyethyl)-1H-pyrazol-4-yl]methoxy}-1-benzofuran-2-yl)pyridine-3-carbonitrile], the pIC50 was > 7.00.
As for `CSc1ccc(C(=O)Nc2ccc3oc(-c4cccnc4)nc3c2)cc1` [4-(methylsulfanyl)-N-[2-(pyridin-3-yl)-1,3-benzoxazol-5-yl]benzamide], the pIC50 was > 7.00.
The value for `O=C(Nc1ccc2oc(-c3cccnc3)nc2c1)c1ccc(COc2ccccc2)cc1` [4-(phenoxymethyl)-N-[2-(pyridin-3-yl)-1,3-benzoxazol-5-yl]benzamide] was > 7.00; that for `N#Cc1cnccc1-c1cc2cc(OCc3cn[nH]c3)ccc2o1` [4-[5-(1H-pyrazol-4-ylmethoxy)-1-benzofuran-2-yl]pyridine-3-carbonitrile] was > 7.00.
In the case of `N#Cc1cnccc1-c1cc2cc(Oc3cccnc3)ccc2o1` [4-[5-(pyridin-3-yloxy)-1-benzofuran-2-yl]pyridine-3-carbonitrile], the pIC50 is > 7.00.
In the case of `N#Cc1cnccc1-c1cc2cc(OCc3cncnc3)ccc2o1` [4-[5-(pyrimidin-5-ylmethoxy)-1-benzofuran-2-yl]pyridine-3-carbonitrile], the pIC50 was > 7.00.

(Values after US12258355B2, “Probes for imaging huntingtin protein” (CHDI Foundation, Inc., priority 2014, dated 2025).)
